Laboratory results: article PMC12595434, “Development of retinoid nuclear receptor pathway antagonists through targeting aldehyde dehydrogenase 1A3” (iScience, 2025)
Each block holds one molecule with its values, some of them ahead of it.

Legend:
FAM204A = target: T1, FAM204A (Homo sapiens, UniProt Q9H8W3); experiment: Thermal proteome profiling (TPP) in A375 cells; format: cell-based
T1 construct: Treated A375 cells were harvested from 10 × 15 cm plates; endogenous in cells; host or cells: A375 melanoma cells

MAO-A = MAO-A (Homo sapiens, UniProt P21397); experiment: Off-target profiling panel; format: biochemical; details: read-out: Inhibition by MBE1 at 10 μM (%)
PVRL1 = target: T2, PVRL1 (Homo sapiens, UniProt Q15223); experiment: Thermal proteome profiling (TPP) in A375 cells; format: cell-based; details: PVRL1, 1 uM
T2 construct: Treated A375 cells were harvested from 10 × 15 cm plates; endogenous in cells; host or cells: A375 melanoma cells

GABAA = experiment: Off-target profiling panel
op-delta = op-delta (Homo sapiens, UniProt P41143); experiment: Off-target profiling panel; format: binding; details: read-out: Inhibition by MBE1 at 10 μM (%)
ALDH1A3 = target: T3, ALDH1A3 (Homo sapiens, UniProt P47895); experiment: Thermal proteome profiling (TPP) in A375 cells; format: cell-based; set-up: endogenous in cells; host or cells: A375 cells; details: 100 nM and 1 μM MBE1, A375 cells
T3 sequence (P47895 1-512): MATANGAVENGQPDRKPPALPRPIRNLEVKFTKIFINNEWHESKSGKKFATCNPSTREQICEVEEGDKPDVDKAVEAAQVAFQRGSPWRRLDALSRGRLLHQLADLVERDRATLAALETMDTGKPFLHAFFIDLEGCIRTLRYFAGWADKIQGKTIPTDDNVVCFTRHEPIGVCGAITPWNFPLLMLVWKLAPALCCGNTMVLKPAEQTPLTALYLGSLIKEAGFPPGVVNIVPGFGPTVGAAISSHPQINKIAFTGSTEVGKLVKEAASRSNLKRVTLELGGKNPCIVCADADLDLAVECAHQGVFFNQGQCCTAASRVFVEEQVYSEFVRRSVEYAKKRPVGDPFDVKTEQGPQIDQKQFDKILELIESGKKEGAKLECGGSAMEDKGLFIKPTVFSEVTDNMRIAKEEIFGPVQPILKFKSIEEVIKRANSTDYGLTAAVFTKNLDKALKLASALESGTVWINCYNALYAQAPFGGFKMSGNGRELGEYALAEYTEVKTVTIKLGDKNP

V1A = V1A (Homo sapiens, UniProt P37288); experiment: Off-target profiling panel; format: binding; details: read-out: Inhibition by MBE1 at 10 μM (%)
nACHR-Alpha7 = nACHR-Alpha7 (Homo sapiens, UniProt P36544); experiment: biochemical; format: binding; details: read-out: Inhibition by MBE1 at 10 μM (%)
COX2 = COX2 (Homo sapiens, UniProt P35354); experiment: Off-target profiling panel; format: biochemical; details: read-out: Inhibition by MBE1 at 10 μM (%)
C19orf66 = target: T4, C19orf66 (Homo sapiens, UniProt Q9NUL5); experiment: Thermal proteome profiling (TPP) in A375 cells; format: cell-based; details: C19orf66, 1 uM
T4 construct: Treated A375 cells were harvested from 10 × 15 cm plates; endogenous in cells; host or cells: A375 melanoma cells

PDE4D2 = PDE4D2 (Homo sapiens, UniProt Q08499); experiment: Off-target profiling panel; format: biochemical; details: read-out: Inhibition by MBE1 at 10 μM (%)
[1] = target: T5, ALDH1A3 in MCF7 or SUM159-M1a-ALDH1A3 knockout cells (Homo sapiens, UniProt P47895); experiment: Aldefluor dose titration, cells with ectopic ALDH1A3; format: cell-based
T5 construct: expressed in transfected cells; host or cells: MCF7 wild-type; SUM159-M1a-ALDH1A3 knockout
Protocol: Next, we developed three orthogonal methods to assess MBE1.5 selectivity and potency in cellular assays, as these cellular assays provide a more physiologically relevant method to assess target engagement and specificity. […] We confirmed expression of each enzyme and then performed a dose titration of the Aldefluor assay in each cell derivative with MBE1.5. […] Therefore, we performed thermal proteome profiling (TPP) on A375 melanoma cells exposed to DMSO, 100 nM MBE1, and 1 μM MBE1. […] These two doses would be expected to saturate ALDH1A3 binding based on the biochemical affinity while the high dose may be expected to identify potential MBE1 off-targets. […] We next assessed for melting point changes in the dataset using a 1.5°C cutoff and p < 0.05; 112 proteins were identified in the comparison between 100 nM MBE1 and DMSO, including ALDH1A3. […] Finally, we validated that MBE1.5 blocked the physiological function of ALDH1A3 by testing a dose titration of MBE1.5 in the retinoid inhibition assay using MCF7-ALDH1A3 cell-based readout.
In addition, cells were suspended at a concentration of 100,000 cells per mL. […] Cells were analyzed by a BD LSRII for flow cytometry and were sorted using a FACSAria Fusion cell sorter (BD Biosciences) equipped with a 70 micron nozzle. […]

T2 sequence (Q15223 31-517): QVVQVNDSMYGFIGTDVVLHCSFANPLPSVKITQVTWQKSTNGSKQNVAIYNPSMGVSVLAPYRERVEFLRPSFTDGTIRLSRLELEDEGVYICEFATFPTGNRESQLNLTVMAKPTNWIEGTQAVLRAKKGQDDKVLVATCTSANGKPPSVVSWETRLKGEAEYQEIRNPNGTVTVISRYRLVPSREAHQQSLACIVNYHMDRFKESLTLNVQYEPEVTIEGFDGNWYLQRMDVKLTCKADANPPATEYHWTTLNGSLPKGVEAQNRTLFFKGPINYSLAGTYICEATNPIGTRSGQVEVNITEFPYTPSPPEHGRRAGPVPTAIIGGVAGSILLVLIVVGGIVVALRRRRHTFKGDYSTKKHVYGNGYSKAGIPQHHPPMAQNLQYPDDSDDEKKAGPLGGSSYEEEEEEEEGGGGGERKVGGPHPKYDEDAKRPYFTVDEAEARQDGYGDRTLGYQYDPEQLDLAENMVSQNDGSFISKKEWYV
T1 sequence (Q9H8W3 whole entry): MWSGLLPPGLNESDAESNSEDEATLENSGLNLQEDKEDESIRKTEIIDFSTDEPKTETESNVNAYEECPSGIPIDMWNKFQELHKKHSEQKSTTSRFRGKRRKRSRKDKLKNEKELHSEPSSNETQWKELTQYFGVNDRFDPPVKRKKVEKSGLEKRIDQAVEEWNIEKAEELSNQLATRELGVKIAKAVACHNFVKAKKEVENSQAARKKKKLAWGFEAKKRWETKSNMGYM
Chain of nACHR-Alpha7 (P36544 23-502): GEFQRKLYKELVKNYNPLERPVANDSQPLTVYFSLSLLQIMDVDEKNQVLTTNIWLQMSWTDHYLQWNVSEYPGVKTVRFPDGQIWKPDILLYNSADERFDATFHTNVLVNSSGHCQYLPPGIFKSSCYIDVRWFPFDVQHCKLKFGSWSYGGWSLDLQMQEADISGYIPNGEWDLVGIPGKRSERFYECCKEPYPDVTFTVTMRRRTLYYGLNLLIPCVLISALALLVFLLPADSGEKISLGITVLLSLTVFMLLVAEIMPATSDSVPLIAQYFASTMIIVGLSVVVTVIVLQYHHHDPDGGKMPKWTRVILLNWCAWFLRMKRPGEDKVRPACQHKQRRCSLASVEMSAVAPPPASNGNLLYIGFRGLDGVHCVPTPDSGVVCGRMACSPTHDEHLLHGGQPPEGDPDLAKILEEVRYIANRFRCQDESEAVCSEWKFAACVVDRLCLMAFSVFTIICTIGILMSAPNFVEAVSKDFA
Chain of PDE4D2 (Q08499 303-809 limits assumed): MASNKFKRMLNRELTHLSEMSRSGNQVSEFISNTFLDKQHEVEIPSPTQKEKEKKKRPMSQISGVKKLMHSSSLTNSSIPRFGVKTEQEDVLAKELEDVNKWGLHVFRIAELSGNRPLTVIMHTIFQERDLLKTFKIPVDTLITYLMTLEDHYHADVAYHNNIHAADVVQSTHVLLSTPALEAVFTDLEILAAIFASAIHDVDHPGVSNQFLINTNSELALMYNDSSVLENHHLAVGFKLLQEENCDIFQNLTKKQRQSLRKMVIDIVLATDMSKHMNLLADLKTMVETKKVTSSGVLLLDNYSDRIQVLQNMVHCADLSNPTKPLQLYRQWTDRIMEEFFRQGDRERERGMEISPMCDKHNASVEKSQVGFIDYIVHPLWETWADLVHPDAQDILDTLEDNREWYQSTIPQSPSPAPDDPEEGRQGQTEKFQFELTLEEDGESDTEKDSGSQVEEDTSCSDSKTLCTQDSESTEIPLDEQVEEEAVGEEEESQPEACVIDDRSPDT
T4 sequence (Q9NUL5 whole entry): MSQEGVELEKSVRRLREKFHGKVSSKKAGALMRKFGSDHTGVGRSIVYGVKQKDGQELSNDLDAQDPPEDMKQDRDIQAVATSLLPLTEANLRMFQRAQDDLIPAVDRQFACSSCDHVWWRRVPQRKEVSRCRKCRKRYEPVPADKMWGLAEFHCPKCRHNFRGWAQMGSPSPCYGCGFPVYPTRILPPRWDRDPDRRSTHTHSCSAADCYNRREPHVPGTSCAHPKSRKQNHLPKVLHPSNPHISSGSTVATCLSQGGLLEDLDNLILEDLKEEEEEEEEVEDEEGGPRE
Chain of COX2 (P35354 18-604): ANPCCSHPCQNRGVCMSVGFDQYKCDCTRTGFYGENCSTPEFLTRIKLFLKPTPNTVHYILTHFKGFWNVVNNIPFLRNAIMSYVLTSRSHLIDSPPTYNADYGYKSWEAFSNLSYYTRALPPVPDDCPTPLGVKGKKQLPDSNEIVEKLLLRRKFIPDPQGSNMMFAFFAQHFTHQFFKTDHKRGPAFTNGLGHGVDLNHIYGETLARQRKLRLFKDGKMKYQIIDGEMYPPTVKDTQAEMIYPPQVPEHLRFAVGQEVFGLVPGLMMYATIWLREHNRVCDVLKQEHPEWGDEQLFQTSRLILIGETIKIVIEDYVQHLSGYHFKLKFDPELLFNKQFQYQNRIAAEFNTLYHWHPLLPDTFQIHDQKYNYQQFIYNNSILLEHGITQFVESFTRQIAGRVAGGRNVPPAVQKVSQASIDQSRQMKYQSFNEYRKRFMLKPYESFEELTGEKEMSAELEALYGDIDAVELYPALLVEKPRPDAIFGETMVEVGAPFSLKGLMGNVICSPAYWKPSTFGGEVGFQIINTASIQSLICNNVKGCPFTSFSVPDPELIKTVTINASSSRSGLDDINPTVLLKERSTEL
Chain of V1A (P37288 whole entry): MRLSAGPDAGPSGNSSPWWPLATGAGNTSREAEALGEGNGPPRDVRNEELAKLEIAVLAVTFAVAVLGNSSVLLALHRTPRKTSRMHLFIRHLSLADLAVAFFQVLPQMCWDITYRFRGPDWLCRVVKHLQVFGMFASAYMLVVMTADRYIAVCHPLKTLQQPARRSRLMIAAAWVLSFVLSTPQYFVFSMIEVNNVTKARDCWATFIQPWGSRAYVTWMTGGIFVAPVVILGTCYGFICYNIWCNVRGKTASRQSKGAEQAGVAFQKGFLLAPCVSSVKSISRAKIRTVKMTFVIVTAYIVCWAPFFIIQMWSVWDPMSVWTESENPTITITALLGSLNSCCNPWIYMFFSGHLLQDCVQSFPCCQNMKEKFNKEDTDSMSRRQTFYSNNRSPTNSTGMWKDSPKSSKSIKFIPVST
Chain of MAO-A (P21397 whole entry): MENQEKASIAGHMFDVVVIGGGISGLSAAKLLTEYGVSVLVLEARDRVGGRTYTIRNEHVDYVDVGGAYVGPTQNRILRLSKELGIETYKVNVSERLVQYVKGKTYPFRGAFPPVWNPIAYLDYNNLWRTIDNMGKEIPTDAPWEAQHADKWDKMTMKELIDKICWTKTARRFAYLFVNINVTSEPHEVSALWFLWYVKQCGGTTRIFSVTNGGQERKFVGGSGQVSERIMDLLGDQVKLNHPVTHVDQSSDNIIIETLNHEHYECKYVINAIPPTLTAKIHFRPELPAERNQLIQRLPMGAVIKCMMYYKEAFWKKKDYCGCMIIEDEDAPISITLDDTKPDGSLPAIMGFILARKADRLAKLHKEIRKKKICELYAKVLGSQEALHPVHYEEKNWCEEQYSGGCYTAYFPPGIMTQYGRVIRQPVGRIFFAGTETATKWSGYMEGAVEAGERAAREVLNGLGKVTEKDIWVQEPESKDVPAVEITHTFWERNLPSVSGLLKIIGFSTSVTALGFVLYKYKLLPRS
Chain of op-delta (P41143 whole entry): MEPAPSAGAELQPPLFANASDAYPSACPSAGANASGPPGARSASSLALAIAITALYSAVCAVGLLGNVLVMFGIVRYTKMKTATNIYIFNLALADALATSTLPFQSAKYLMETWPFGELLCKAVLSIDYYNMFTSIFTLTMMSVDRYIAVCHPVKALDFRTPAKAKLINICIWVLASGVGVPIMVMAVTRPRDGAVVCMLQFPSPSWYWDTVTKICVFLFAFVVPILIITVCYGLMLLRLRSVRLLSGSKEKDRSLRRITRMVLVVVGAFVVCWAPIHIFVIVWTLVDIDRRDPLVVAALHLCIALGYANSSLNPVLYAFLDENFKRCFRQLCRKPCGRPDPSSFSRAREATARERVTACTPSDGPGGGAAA

SMILES: CCc1cnccc1C(=O)Nc1cc2c(cc1F)NC(=O)CC2 [MBE1, 3-ethyl-N-(7-fluoro-2-oxo-3,4-dihydro-1H-quinolin-6-yl)pyridine-4-carboxamide]
- 100nM MBE1 Tm (FAM204A): 63.4426
- DMSO-100nM MBE1 TM (FAM204A): -8.6993
- inhibition at 10 µM (MAO-A): -8.05%
- ΔTm at 1 µM (PVRL1; A-375, read-out: DMSO-1uM MBE1 TM shift): -15.1 °C
- 1uM MBE1 Tm (PVRL1): 64
- Inhibition by MBE1 at 10 μM (%) (GABAA): −5.08%
- inhibition at 10 µM (op-delta): 5.54%
- thermal stabilization of ALDH1A3 in TPP (in words) (ALDH1A3): stabilized
- inhibition at 10 µM (V1A): 5.88%
- inhibition at 10 µM (nACHR-Alpha7): -9.85%
- inhibition at 10 µM (COX2): -1.05%
- 1uM MBE1 Tm (C19orf66): 53.8379
- inhibition at 10 µM (PDE4D2): 11.8%

- inhibition of ALDH1A3 in Aldefluor assay (in words) [1]: high potency
SMILES: CCc1ccccc1C(=O)Nc1cc2c(cc1F)NC(=O)CC2 [MBE1.5, 2-ethyl-N-(7-fluoro-2-oxo-3,4-dihydro-1H-quinolin-6-yl)benzamide]
